{"source": "patent US20190358242A1", "about": "“COMPOSITIONS, KITS, AND METHODS TO INDUCE ACQUIRED CYTORESISTANCE USING STRESS PROTEIN INDUCERS” (FRED HUTCHINSON CANCER RESEARCH CENTER, priority 2017, published 2019)", "key": {"IL-10 mRNA": {"tested_on": "IL-10 mRNA", "assay": "Cardiac IL-10 mRNA (RT-PCR)", "format": "in vivo, CD-1 mice", "experimental": "(§1) Thirty-two mice were divided into 4 equal groups: (1) control mice; (2) mice treated with 1 mg of N-Mgb injection (as a bolus through the tail vein); (3) mice treated with […] of SnPP (via tail vein); and (4) mice treated with combined N-Mgb 1 SnPP. After either 4 hours (n=16) or 18 hours (n=16), the mice were deeply anesthetized with pentobarbital (50 mg/kg), the abdomen was opened through a midline abdominal incision, and the kidneys were removed. To determine potential effects on extrarenal organs, a liver lobe and the heart were also removed. The tissues were iced and then extracted for protein and RNA (RNeasy Plus Mini; Qiagen, Valencia, Calif.) and subjected to enzyme linked immunosorbent assay (ELISA) and reverse transcriptase polymerase chain reaction (RT-PCR) for HO-1, haptoglobin, and IL-10 protein and messenger RNAs (mRNAs). Zager et al. J Am Soc Nephrol 2014; 25:998-1012; Zager et al. Am J Physiol 2012; 303:F139-48. As an assessment of renal function, control mice and the 18 hour after N-Mgb+SnPP-treated mice had blood urea nitrogen (BUN) and plasma creatinine levels measured. Additionally, transverse 10% formalin fixed kidney sections ([…]) were cut and stained with hematoxylin and eosin (H&E) and periodic acid Schiff (PAS) to further assess potential injury."}, "IL-10 protein": {"tested_on": "IL-10 protein", "assay": "Cardiac IL-10 protein (ELISA)", "format": "in vivo, CD-1 mice", "experimental": "as §1"}, "haptoglobin mRNA": {"tested_on": "haptoglobin mRNA", "assay": "SnPP vs. SnMeP: renal cortical haptoglobin mRNA induction (RT-PCR)", "format": "in vivo, mice", "conditions": "1 umole, 4 hrs post injection, n 3", "source_text": "FIG. 28. Comparison of SnPP vs. SnMeP effects on renal cortical HO-1 and haptoglobin mRNA induction 4 hrs post agent injection. Mice received either 1 umole tin protoporphyrin (SnPP), tin mesoporphyrin (SnMeP), or vehicle (n, 3 each) and 4 hrs renal cortical RNA was extracted and subjected to RT-PCR."}}}
{"compound": "C=Cc1c2[n-]c(c1C)/C=c1\\[n-]/c(c(C)c1C=C)=C\\c1[n-]c(c(CCC(=O)O)c1C)/C=c1\\[n-]c(c(C)c1CCC(=O)O)=C2.[Sn+4]", "note": "[SnPP, tin protoporphyrin]", "values": [{"measurement": "Cardiac mRNA IL-10", "setting": "IL-10 mRNA; 4 h after IV injection", "value": "0.58 ± 0.16"}, {"measurement": "Cardiac mRNA IL-10", "setting": "IL-10 mRNA; 18 h after IV injection", "value": "0.53 ± 0.10"}, {"measurement": "Cardiac Protein IL-10", "setting": "IL-10 protein; 4 h after IV injection", "value": "15.8 ± 10^"}, {"measurement": "Cardiac protein IL-10 (L-10 [sic])", "setting": "IL-10 protein; 18 h after IV injection", "value": "23.4 ± 14^"}, {"measurement": "Renal cortical haptoglobin mRNA induction", "setting": "haptoglobin mRNA", "value": "raised"}]}
